Measured values published in paper PMC8698454, “Anti-Colonization Effect of Au Surfaces with Self-Assembled Molecular Monolayers Functionalized with Antimicrobial Peptides on S. epidermidis” (Antibiotics, 2021).
Read-outs that look alike come from different tables or passages of the source.

How the values were obtained:
Gram-negative bacteria = type: cell-based, E. coli and P. aeruginosa; conditions: text summary over E. coli ATCC 25922 and P. aeruginosa ATCC 27853
Method: (§1) The minimal inhibitory concentration (MIC) of peptides 1a, 1b, 2a, and 2b were determined by broth microdilution according to the Clinical Laboratory Standard Institute (CLSI) method […]-A9. The MICs of the peptides 1c, 1d, 2c, and 2d were determined by broth dilution according to the European Committee for Antimicrobial Susceptibility Testing (EUCAST). Final concentrations of 0.5-256 μg/mL were tested against a panel of reference bacteria-S. aureus (ATCC 9144), S. epidermidis (1457), E. coli (ATCC 25922), and P. aeruginosa (ATCC 27853). Each strain was tested in biological triplicate. The MIC values were defined as the lowest concentration of the peptides resulting in no visual growth.

[1] = test system: Staphylococcus epidermidis 1457; type: cell-based; conditions: for MIC S. epidermidis 1457: Table S3
Method: as §1

[2] = test system: Escherichia coli ATCC 25922; type: cell-based; conditions: for MIC E. coli ATCC 25922: Table S3
Method: as §1

[3] = test system: Pseudomonas aeruginosa ATCC 27853; type: cell-based; conditions: for MIC P. aeruginosa ATCC 27853: Table S3
Method: as §1

[4] = test system: Staphylococcus aureus ATCC 9144; type: cell-based; conditions: for MIC S. aureus ATCC 9144: Table S3
Method: as §1

Gram-positive bacteria = type: cell-based, S. aureus and S. epidermidis; conditions: text summary over S. aureus ATCC 9144 and S. epidermidis 1457
Method: as §1

[5] = technical replicate 1, biological replicate BR1
[6] = technical replicate 1, biological replicate BR2
[7] = technical replicate 1, biological replicate BR3
[8] = technical replicate 2, biological replicate BR1
[9] = technical replicate 2, biological replicate BR2
[10] = technical replicate 2, biological replicate BR3
[11] = technical replicate 3, biological replicate BR1
[12] = technical replicate 3, biological replicate BR2
[13] = technical replicate 3, biological replicate BR3

In the case of “N3-PEG200-RBBRF [2a, azidopeptide N3-PEG200-RBBRF, B = biphenylalanine, amidated C-terminus]”, the “MIC against Gram-negative bacteria” value (Gram-negative bacteria) is reported as 64 µg/mL, the “MIC S. epidermidis 1457” value [1, 5] is reported as 4 µg/mL and the “MIC S. epidermidis 1457” value [1, 6] is reported as 8 µg/mL. For the same substance, the “MIC S. epidermidis 1457” value [1, 7] was 8 µg/mL, the “MIC S. epidermidis 1457” value [1, 8] was 4 µg/mL and the “MIC S. epidermidis 1457” value [1, 9] was 8 µg/mL. The “MIC S. epidermidis 1457” value [1, 10] was 8 µg/mL, the “MIC S. epidermidis 1457” value [1, 11] was 4 µg/mL and the “MIC S. epidermidis 1457” value [1, 12] was 8 µg/mL. The “MIC S. epidermidis 1457” value [1, 13] was 8 µg/mL, the “Antimicrobial Activity (MIC) S. epidermidis” value ([1]; strain 1457, broth microdilution CLSI M07-A9 (1a,1b,2a,2b) or broth dilution EUCAST (1c,1d,2c,2d), 0.5-256 µg/mL tested, biological triplicate, no visual growth) was 8 µg/mL and the “Antimicrobial Activity (MIC) E. coli” value ([2]; ATCC 25922, broth microdilution CLSI M07-A9 (1a,1b,2a,2b) or broth dilution EUCAST (1c,1d,2c,2d), 0.5-256 µg/mL tested, biological triplicate, no visual growth) was 64 µg/mL. For the same substance, the “MIC E. coli ATCC 25922” value [2, 5] was 64 µg/mL, the “MIC E. coli ATCC 25922” value [2, 6] was 64 µg/mL and the “MIC E. coli ATCC 25922” value [2, 7] was 64 µg/mL. For the same substance, the “MIC E. coli ATCC 25922” value [2, 8] was 64 µg/mL, the “MIC E. coli ATCC 25922” value [2, 9] was 64 µg/mL and the “MIC E. coli ATCC 25922” value [2, 10] was 64 µg/mL. For the same substance, the “MIC E. coli ATCC 25922” value [2, 11] was 64 µg/mL, the “MIC E. coli ATCC 25922” value [2, 12] was 64 µg/mL and the “MIC E. coli ATCC 25922” value [2, 13] was 64 µg/mL. For the same substance, the “Antimicrobial Activity (MIC) P. aeruginosa” value ([3]; ATCC 27853, broth microdilution CLSI M07-A9 (1a,1b,2a,2b) or broth dilution EUCAST (1c,1d,2c,2d), 0.5-256 µg/mL tested, biological triplicate, no visual growth) was 64 µg/mL, the “MIC P. aeruginosa ATCC 27853” value [3, 5] was 64 µg/mL and the “MIC P. aeruginosa ATCC 27853” value [3, 6] was 64 µg/mL. The “MIC P. aeruginosa ATCC 27853” value [3, 7] was 64 µg/mL, the “MIC P. aeruginosa ATCC 27853” value [3, 8] was 64 µg/mL and the “MIC P. aeruginosa ATCC 27853” value [3, 9] was 64 µg/mL. The “MIC P. aeruginosa ATCC 27853” value [3, 10] was 64 µg/mL, the “MIC P. aeruginosa ATCC 27853” value [3, 11] was 64 µg/mL and the “MIC P. aeruginosa ATCC 27853” value [3, 12] was 64 µg/mL. For the same substance, the “MIC P. aeruginosa ATCC 27853” value [3, 13] was 64 µg/mL, the “Antimicrobial Activity (MIC) S. aureus” value ([4]; ATCC 9144, broth microdilution CLSI M07-A9 (1a,1b,2a,2b) or broth dilution EUCAST (1c,1d,2c,2d), 0.5-256 µg/mL tested, biological triplicate, lowest concentration with no visual growth) was 8 µg/mL and the “MIC S. aureus ATCC 9144” value [4, 5] was 8 µg/mL. For the same substance, the “MIC S. aureus ATCC 9144” value [4, 6] was 8 µg/mL, the “MIC S. aureus ATCC 9144” value [4, 7] was 8 µg/mL and the “MIC S. aureus ATCC 9144” value [4, 8] was 8 µg/mL. For the same substance, the “MIC S. aureus ATCC 9144” value [4, 9] was 8 µg/mL, the “MIC S. aureus ATCC 9144” value [4, 10] was 8 µg/mL and the “MIC S. aureus ATCC 9144” value [4, 11] was 8 µg/mL. For the same substance, the “MIC S. aureus ATCC 9144” value [4, 12] was 8 µg/mL, the “MIC S. aureus ATCC 9144” value [4, 13] was 8 µg/mL and the “MIC against Gram-positive bacteria” value (Gram-positive bacteria) was 8 µg/mL.
